Test results published in patent US12708673B2, “Methods and compositions related to peptides and proteins with c-terminal elements” (Sanford Burnham Prebys Medical Discovery Institute, priority 2008, dated 2026).
“Also recorded” adds a separate entry of the source. Ends that are not written are not given here.

How the values were obtained:
Format in all cases: cell-based, human
[1] = system: PPC-1 cells; experiment: T7 phage internalization into PPC-1 (PPC1) cells at 37° C. (acid wash and titration, or anti-T7 staining and confocal imaging); conditions: for Effect of endocytosis inhibitor on uptake of CendR peptides (RPARPAR phage internalization): 90 minutes at 37° C., acid wash and titration; for Phage internalization into PPC-1 cells (in words): 37° C.; for Internalization into PPC1 cells compared to native iRGD phage: truncated versions of iRGD phage
Method: (§1) FIG. 2A: Binding of T7 phage to prostate cancer cells depends on the display of a C-terminal arginine on the phage particles. PPC1 cells were incubated with T7 bacteriophage displaying derivatives of the G7 (upper graph) or RPARPAR peptide (SEQ ID NO: 2) (lower graph) at 4° C., and the bound phage was quantified by plaque assay. Binding is expressed in fold over of the non-binding G7 control phage. FIG. 2B: Phage displaying C-terminal arginine is internalized into cultured PPC1 cells (arrow, nuclear internalization; arrowhead, cytoplasmic internalization). A panel of T7 phage clones were incubated at 37° C. with PPC1 cells grown on collagen-coated coverslips, stained with anti T7 antibody and imaged by confocal microscopy.
(§2) Phage display. For in vivo phage display, mice were injected intravenously with 10^10 plaque-forming units (pfu) of T7 phage followed by perfusion of the circulatory system and determination of the bound phage in target organs by titration. For cell binding studies on cultured cells (in vitro display) and organ-derived cell suspensions (ex vivo display), the cells were incubated with 10^9 pfu of phage at 4° C., washed, lysed, and quantified by titration. Incubation at 37° C. followed by low pH wash (glycine-HCl, pH 2.5) was used to assess the amount of internalized phage.
(§3) For biopanning and phage binding studies (Hoffman, J. A. et al., 2004), cultured cells were grown to confluence and harvested with trypsin and mouse organs were dissociated using Medimachine (BD Biosciences, San Jose, CA). To measure phage binding, 10^6 cells in binding buffer (DMEM containing 1% BSA) were incubated with 10^9 pfu/ml of T7 phage for 1 hour at 4° C. The cells were washed 4 times with the binding buffer, lysed in LB bacterial growth medium containing 1% NP-40, and titrated. Phage internalization assays used the same procedure, except that the cells were incubated with the phage at 37° C., and that an acidic buffer (500 mM sodium chloride, 0.1 M glycine, 1% BSA, pH 2.5) was used instead of binding buffer in the second wash.
(§4) Centrifugation on a silicone oil cushion (1.03 g/ml) was used to separate unbound phage from cells during time course experiments. Inhibitors of phage binding and internalization (heparin, chondroitin, glycocalyx removal enzymes, endocytosis inhibitors, free peptides, quantum dots and UV-inactivated phage) were added to the cells 20 minutes prior to incubation with phage. Endocytosis inhibitors used in this study were the following: nystatin (50 μg/ml), genistein (100 μg/ml), chlorpromazine (5 μg/ml), 5-(N-ethyl-N-isopropyl) amiloride (100 μM), wortmannin (10 μM).
Immunofluorescence staining. Cultured cells (2×10^5 cells) were grown in 6-well tissue culture plates on collagen-I coated coverslips (BD Biosciences, San Jose, CA) overnight at 37° C. in 5% CO2, and incubated with 10^8 pfu of T7 phage. The cells were fixed in 4% paraformaldehyde or cold (−20° C.) methanol, and stained with antibodies. Nuclei were stained with DAPI or […]. A polyclonal rabbit anti-T7 antibody was generated in-house as described previously (Laakkonen, P. et al. 2002b), except that an additional phage purification step using […] centrifugation was included. Other primary antibodies used were rat anti-mouse CD31 monoclonal antibody (BD Biosciences), rabbit anti-NRP-1, mouse anti-human Lamp-1, mouse anti-human caveolin (Millipore, Temecula, CA), mouse anti-NRP-1 (Miltenyi Biotec Inc., Auburn, CA), mouse anti-human EEA-1 (BD Biosciences, San Jose, CA). The secondary antibodies, Alexa594 goat antibodies to mouse, rat, and rabbit immunoglobulins and Alexa488 donkey anti-rabbit antibody were from Invitrogen (Carlsbad, CA). Cells and tissue sections were examined by confocal microscopy (Fluoview 500, Olympus America Inc., Center Valley, PA).

[2] = system: PPC-1 cells; experiment: Binding and internalization of peptide-coated quantum dots by PPC-1 cells (confocal/fluorescence microscopy)
[3] = system: PPC-1 cells; experiment: T7 phage binding to PPC-1 (PPC1) cells at 4° C., quantified by titration/plaque assay; conditions: for Effect of glycosaminoglycan digestion or competition on RPARPAR phage binding: data not shown
Method: as §1, §2, §3, §4

[4] = system: PPC-1 cells; experiment: Confocal immunofluorescence co-staining of phage/qdots with cellular markers in PPC-1 cells; conditions: immunofluorescent co-staining
[5] = system: PPC-1 cells; experiment: Protease treatment of phage followed by phage binding assay on PPC-1 cells at 4° C.
Method: 5×10^8 phage particles were incubated with indicated volumes of 2.5% trypsin at 37° C. for 20 min, followed by incubation of the phage with 1×10^6 PPC1 cells at 4° C. for 3 hours. Binding is expressed as fold over non-binding G7 control phage (the internalization of which was not affected by the trypsin treatment).
10^9 pfu of RPARPARA (SEQ ID NO:3) phage was treated with indicated amounts of trypsin at 37° C. followed by phage binding assay at 4° C. The data are representative of 4 independent binding experiments.
FIGS. 20A-20C show urokinase dependent CendR peptide. FIG. 20A: The design of a uPA-activatable CendR peptide (uCendR). […] Statistical analysis was performed with ANOVA (b); n=3; error bars indicate s.d.; triple asterisk, p<0.001. Scale bars: 20 μm.
as §3
Protease treatment of phage and qdots. 10^9 phage particles or 50 μl of peptide-coated qdots phage were treated with 50 iu of uPA, 25 μg of crystalline trypsin, 50 iu of thrombin, or 25 μg of collagenase type I (all Sigma, St. Louis, Mo).

Molecule: CCN(c1nc(N)c(C(=O)N=C(N)N)nc1Cl)C(C)C [5-(N-ethyl-N-isopropyl) amiloride, reference compound]
- Effect of endocytosis inhibitor on uptake of CendR peptides (RPARPAR phage internalization) [1]: None of these inhibitors affected the uptake

Molecule: N=C(N)NC(=O)c1nc(Cl)c(N)nc1N [Amiloride, reference compound]
- Effect on uptake of uPA-CendR qdots [2]: inhibited uptake

Molecule: CN(C)CCCN1c2ccccc2Sc2ccc(Cl)cc21 [chloropromazine, reference compound]
- Effect of endocytosis inhibitor on uptake of CendR peptides (RPARPAR phage internalization) [1]: None of these inhibitors affected the uptake

Molecule: O=c1c(-c2ccc(O)cc2)coc2cc(O)cc(O)c12 [genistein, reference compound]
- Effect of endocytosis inhibitor on uptake of CendR peptides (RPARPAR phage internalization) [1]: None of these inhibitors affected the uptake

Molecule: C[C@@H]1[C@H](O)[C@@H](C)/C=C/C=C/CC/C=C/C=C/C=C/C=C/C(O[C@H]2O[C@H](C)[C@@H](O)[C@H](N)[C@@H]2O)CC2O[C@](O)(CC(O)C(O)CCC(O)CC(O)CC(O)CC(=O)O[C@H]1C)CC(O)C2C(=O)O (some centres unmarked) [nystatin, reference compound]
- Effect of endocytosis inhibitor on uptake of CendR peptides (RPARPAR phage internalization) [1]: None of these inhibitors affected the uptake

Molecule: ATWLPPR [A7R phage, reference compound]
- Phage binding to PPC-1 cells (in words) ([3]; 4° C.): bound

Molecule: CG7C [CG7C control phage, reference compound]
- Phage internalization into PPC-1 cells (in words) [1]: does not

Molecule: CRGDK [CRGDK phage]
- Internalization into PPC1 cells compared to native iRGD phage [1]: higher ability to internalize

Molecule: CRGDKG [CRGDKG phage]
- Internalization into PPC1 cells compared to native iRGD phage [1]: higher ability to internalize

Molecule: D-rparpar [D-rparpar qdots]
- Binding and internalization of peptide-coated qdots (in words) [2]: greatly reduced ability to trigger uptake of quantum dots

Molecule: GGGGGGR [G6R phage]
- Phage binding to PPC-1 cells (in words) ([3]; 4° C.): weak phage binding

Molecule: RGERPPR [RGERPPR phage]
- Phage internalization into PPC-1 cells (in words) [1]: robust binding and internalization
- Phage binding to PPC-1 cells (in words) ([3]; 4° C.): robust binding and internalization

Molecule: RPAR [RPAR phage]
- Effect of UV-inactivated phage on CRGDK phage internalization ([1]; pre-incubation, various concentrations): inhibited by RPAR phage in a dose-dependent fashion

Molecule: RPARPAR (also: biotinylated, site not given here, on streptavidin quantum dot) [RPARPAR qdots, streptavidin quantum dots coated with biotinylated RPARPAR peptide with free C-terminus]
- Binding and internalization of peptide-coated qdots (in words) [2]: robust binding and internalization; also recorded: bound and were internalized in a manner indistinguishable from the phage particles
- Time to perinuclear accumulation ([2]; qdots, 37° C., live cells): 1 h
- Time to plasma membrane association ([2]; qdots, 37° C., live cells): 15 min
- Effect of excess qdots on G6R phage binding ([3]; 4° C.): blocked
- Effect of preincubating cells with qdots on binding of RPARPAR, RGERPPR and RVTRPPR phage ([3]; 4° C.): inhibited
- Effect of qdots on binding and internalization of RPARPAR phage ([3]; bound at 4° C., internalized at 37° C. with low pH wash): inhibited both the binding and internalization of RPARPAR phage
- Co-localization with NRP-1 [4]: co-localize with NRP-1 at the cell surface and inside the cells

Molecule: RPARPAR-NH2 [RPARPAR-NH2 qdots]
- Binding and internalization of peptide-coated qdots (in words) [2]: abolished the binding and internalization; also recorded: blocked qdot internalization

Molecule: RPARPARA (also: biotinylated, site not given here, on streptavidin quantum dot) [RPARPARA qdots]
- Binding and internalization of peptide-coated qdots (in words) [2]: prevented

Molecule: RPARSGRSAGGSVA (also: biotinylated, site not given here, on streptavidin quantum dot) [uCendR qdots]
- Internalization of untreated qdots ([2]; no uPA treatment): are not internalized
- Internalization of qdots after uPA treatment [2]: triggers internalization
- Internalization of qdots after uPA treatment ([2]; listed as RPARSGRSAGGSVA qdots): internalized in uPA sensitive fashion

Molecule: RPARSGRSAGGSVA [uPA-CendR phage]
- Effect of phage treatment with collagenase-I on binding ([5]; 25 μg of collagenase type I): had no effect
- Effect of phage treatment with thrombin on binding ([5]; 50 iu of thrombin): had no effect
- Elevation of binding by pretreatment with uPA ([5]; 50 iu of uPA prior to cell binding): more than 100 fold
- Binding of untreated phage to PPC-1 cells over control G7 phage ([5]; no protease treatment): did not bind
- Effect of trypsin treatment of phage on binding (in words) ([5]; trypsin): greatly enhanced the binding

Molecule: RVTRPPR [RVTRPPR phage]
- Phage internalization into PPC-1 cells (in words) [1]: robust binding and internalization
- Phage binding to PPC-1 cells (in words) ([3]; 4° C.): robust binding and internalization

Molecule: TKPPR [enhanced tuftsin phage, reference compound]
- Phage binding to PPC-1 cells (in words) ([3]; 4° C.): bound

Molecule: chondroitin sulfate [reference compound]
- Effect of glycosaminoglycan digestion or competition on RPARPAR phage binding [3]: had no effect

Molecule: chondroitinase ABC [reference compound]
- Effect of glycosaminoglycan digestion or competition on RPARPAR phage binding [3]: had no effect

Molecule: heparin [reference compound]
- Effect of glycosaminoglycan digestion or competition on RPARPAR phage binding [3]: had no effect

B1: heparinase III: enzyme used for digestion of cell surface glycosaminoglycans (protein, UniProt Q59289 25-659, looked up)
Heparin-sulfate lyase: QSSSITRKDFDHINLEYSGLEKVNKAVAAGNYDDAAKALLAYYREKSKAREPDFSNAEKPADIRQPIDKVTREMADKALVHQFQPHKGYGYFDYGKDINWQMWPVKDNEVRWQLHRVKWWQAMALVYHATGDEKYAREWVYQYSDWARKNPLGLSQDNDKFVWRPLEVSDRVQSLPPTFSLFVNSPAFTPAFLMEFLNSYHQQADYLSTHYAEQGNHRLFEAQRNLFAGVSFPEFKDSPRWRQTGISVLNTEIKKQVYADGMQFELSPIYHVAAIDIFLKAYGSAKRVNLEKEFPQSYVQTVENMIMALISISLPDYNTPMFGDSWITDKNFRMAQFASWARVFPANQAIKYFATDGKQGKAPNFLSKALSNAGFYTFRSGWDKNATVMVLKASPPGEFHAQPDNGTFELFIKGRNFTPDAGVFVYSGDEAIMKLRNWYRQTRIHSTLTLDNQNMVITKARQNKWETGNNLDVLTYTNPSYPNLDHQRSVLFINKKYFLVIDRAIGEATGNLGVHWQLKEDSNPVFDKTKNRVYTTYRDGNNLMIQSLNADRTSLNEEEGKVSYVYNKELKRPAFVFEKPKKNAGTQNFVSIVYPYDGQKAPEISIRENKGNDFEKGKLNLTLTINGKQQLVLVP
- Effect of glycosaminoglycan digestion or competition on RPARPAR phage binding [3]: had no effect
